Data published in patent US20100204142A1, “USE OF THE PEPTIDE PHPFHLFVY (RENIN INHIBITOR) AS A THERAPEUTIC AGENT” (priority 2007, published 2010).
Where no end group is shown, it is not given here.

Tested on: drug-resistant Mycobacterium tuberculosis
Conditions: drug-resistant Mycobacterium tuberculosis growth; peptide 10 micrograms per ml; seven days

Substance: PHPFHLFVY-OH [Renin inhibitor]
- % inhibition: 0.0%
